# In US20250122189A1, “FGFR4 INHIBITOR ACID SALT, PREPARATION METHOD THEREFOR AND USE THEREOF” (Abbisko Therapeutics Co., Ltd., priority 2021, published 2025):
# Counter-ions that a name gives are not always drawn.
# Assays:
# Solubility in water = assay type: physicochemical; settings: stirred 24 hrs at room temperature
# Protocol: 2 mg of the p-toluenesulfonate salt of the compound of formula (I) (Form A) and 2 mg of the compound of formula (I) in free form were separately placed in a 2 mL glass bottle, 0.4 mL of water was added into the glass bottles separately, the two mixtures were each stirred for 24 hrs on a magnetic stirrer at room temperature and then centrifuged, and the content measurement was carried out by using a liquid phase.
# [1] = Stability test under high temperature and accelerated conditions (chemical purity); assay type: physicochemical
# Source text: The p-toluenesulfonate salt of the compound of formula (I) (Form A) and the compound of formula (I) in free form were subjected to conditions of high temperature and accelerated experiments for stability test, and the chemical purity was used as an evaluation index to evaluate the stability of the p-toluenesulfonate salt of the compound of formula (I) (Form A) and the compound of formula (I) in free form.
# [2] = In vivo pharmacokinetic experiment in monkeys; settings: Monkey, 200 mpk (based on the compound in free form); 200 mg/kg
# Source text: The p-toluenesulfonate salt of the compound of formula (I) (Form A) and the compound of formula (I) in free form were each subjected to PK experiments in monkeys, and the administration dose was 200 mpk (based on the compound in free form).
# [3] = Solubility in physiological vehicle (25% PEG300/5% Solutol HS15/70% water); assay type: physicochemical; settings: vehicle 25% PEG300/5% Solutol HS15/70% water (v/v/v), room temperature, various time points (FIG. 7)
# Protocol: 80 mg of the p-toluenesulfonate salt of the compound of formula (I) (Form A) and 80 mg of the compound of formula (I) in free form were separately placed in a 4 mL glass bottle, 2 mL of vehicle (25% PEG300/5% Solutol HS15/70% water) (v/v/v) was added into the glass bottles separately, the two mixtures were each stirred on a magnetic stirrer at room temperature, samples were taken at various time points and centrifuged, and the content measurement was carried out by using a liquid phase.
# [4] = Hygroscopic behavior test (dynamic vapor sorption); assay type: physicochemical; settings: DVS, 25° C., relative humidity 0% to 90%
# Source text: The experimental method of characterizing the crystalline acidic salts of the compound of formula (I) using dynamic vapor sorption (DVS) is as follows: a small amount of crystalline acidic salt powder of the compound of formula (I) was placed in a precision sample pan that came with the instrument; after the sample was loaded, the aluminum pan was sent into the instrument for analysis. In the present patent, the instruments used for dynamic vapor sorption were all the DVS Intrinsic model, and the experimental parameters were set as follows: nitrogen was set as carrier gas, the constant temperature was set to 25° C., the rate of mass percentage change over a unit of time (dm/dt)=0.01%/min was used as a criterion for determining if an equilibrium is reached, and the program humidity change cycle was set as follows: the initial relative humidity was 0%, the relative humidity was 90% at the end of the cycle, 2 cycles were set, and each 10% R.H. change was a step.
# The hygroscopic weight gains of the p-toluenesulfonate salt of the compound of formula (I) (Form A) in various relative humidity conditions (hygroscopic weight gain/pre-hygroscopic weight*100%) were measured according to the dynamic vapor sorption method to assess the hygroscopicity of the p-toluenesulfonate salt of the compound of formula (I) (Form A).
Solubility (Solubility in water) [µg/mL],"Chemical stability (% initial) ([1]; 40° C./75% RH, 3 d)","Chemical stability (% initial) ([1]; 40° C./75% RH, 7 d)","Chemical stability (% initial) ([1]; 40° C./75% RH, 14 d)","Chemical stability (% initial) ([1]; 60° C., 3 d)","Chemical stability (% initial) ([1]; 60° C., 7 d)","Chemical stability (% initial) ([1]; 60° C., 14 d)",AUC [2] [ng·h/mL],solubility compared with the compound of formula (I) in free form [3],weight change along with the increase of relative humidity (hygroscopic weight gain) [4],SMILES
25.6,99.9,100.0,100.0,100.1,100.1,100.1,9952,–,–,"C=CC(=O)N[C@H]1CCOC[C@H]1Nc1ncc2cc(-c3c(F)c(OC)cc(OC)c3F)nc(N3CC(C)(OC)C3)c2n1 [Compound of formula (I) in free form, N-((3S,4S)-3-((6-(2,6-difluoro-3,5-dimethoxyphenyl)-8-(3-methoxy-3-methylazetidin-1-yl)pyrido[3,4-d]pyrimidin-2-yl)amino)tetrahydro-2H-pyran-4-yl)acrylamide]"
1370,100.2,100.1,100.0,100.3,99.8,99.8,124860,significantly higher,no more than 2%,C=CC(=O)N[C@H]1CCOC[C@H]1Nc1ncc2cc(-c3c(F)c(OC)cc(OC)c3F)nc(N3CC(C)(OC)C3)c2n1 [p-toluenesulfonate salt of the compound of formula (I) (Form]
